These results are taken from the Biogen ADME set (Fang et al. 2023).

The conditions of this data set: for aqueous solubility: pH 6.8.

Values after ≈ are worked out from the molar mass of the structure shown.

As for `Cc1cccc2cc(C(N)=S)/c(=N/Nc3ccccc3)oc12`, the aqueous solubility was 0.48 µg/mL (≈ 1.55 µM).

As for `CN(Cc1ccc(-c2ccc(Br)cc2)o1)C(=O)c1cnn(C)c1`, the intrinsic clearance, human liver microsomes was 10.5 mL/min/kg; the intrinsic clearance, rat liver microsomes turned out to be 134 mL/min/kg; the aqueous solubility stood at 5.53 µg/mL (≈ 14.8 µM).

Compound `O=C(Nc1ccc(Cl)cc1)C(=O)N(C1CCCC1)C1CC1` returned an aqueous solubility of 29.4 µg/mL (≈ 95.8 µM).

Consider `C[C@H](C(=O)Nc1nc2ccccc2[nH]1)N1Cc2ccccc2C1=O`, for which the intrinsic clearance, human liver microsomes was ≤ 4.74 mL/min/kg; the intrinsic clearance, rat liver microsomes was found to be 62.6 mL/min/kg; the aqueous solubility is 26.5 µg/mL (≈ 82.6 µM).

As for `CCc1ccc(CC)c(C(=O)CSc2nncs2)c1`, the MDR1-MDCK efflux ratio is 0.473; the intrinsic clearance, human liver microsomes was 219 mL/min/kg; the intrinsic clearance, rat liver microsomes came to 1550 mL/min/kg.

Take `N#Cc1ccc(OCc2nnc(S)n2-c2ccccc2)cc1`: the aqueous solubility stood at 45.7 µg/mL (≈ 148 µM).

Compound `CC(C)(C)c1cc(C(=O)CSc2nncn2-c2ccccc2)cc(C(C)(C)C)c1O` returned an intrinsic clearance, human liver microsomes of 15.9 mL/min/kg and an intrinsic clearance, rat liver microsomes of 46.6 mL/min/kg.

As to `CC(C)(C)OC(=O)NCCCC(=O)N[C@H]1C[C@@H](n2cnc3c(NCc4ccccc4)ncnc32)[C@@H](O)[C@H]1O`, the MDR1-MDCK efflux ratio was found to be 4.62; the intrinsic clearance, human liver microsomes amounted to 110 mL/min/kg; the intrinsic clearance, rat liver microsomes is 160 mL/min/kg.

As to `NC(=O)CN1CCC(COc2ccccc2C(F)(F)F)CC1`, the MDR1-MDCK efflux ratio was 0.524; the intrinsic clearance, human liver microsomes worked out at 12.9 mL/min/kg; the intrinsic clearance, rat liver microsomes amounted to 1110 mL/min/kg.

Take `Fc1ccccc1CN1CCN(c2ncccn2)CC1`: the MDR1-MDCK efflux ratio was found to be 0.717; the intrinsic clearance, human liver microsomes stood at 84.7 mL/min/kg; the intrinsic clearance, rat liver microsomes is 800 mL/min/kg; the aqueous solubility was 36.2 µg/mL (≈ 133 µM).

For the compound `Nc1nccc2ccc(-c3cccc(F)c3)cc12`, the intrinsic clearance, human liver microsomes is 209 mL/min/kg; the intrinsic clearance, rat liver microsomes turned out to be 790 mL/min/kg; the aqueous solubility came to 3 µg/mL (≈ 12.6 µM).

As for `COc1c(C)cnc(CN(C)S(N)(=O)=O)c1C`, the MDR1-MDCK efflux ratio worked out at 1.91; the intrinsic clearance, human liver microsomes was ≤ 4.74 mL/min/kg; the intrinsic clearance, rat liver microsomes was found to be 82 mL/min/kg; the aqueous solubility was determined as 30.6 µg/mL (≈ 118 µM).

`Cc1nn(C)c(C)c1CCC(=O)N1CCN(C)Cc2ccccc21`: the MDR1-MDCK efflux ratio came to 45.8; the intrinsic clearance, human liver microsomes turned out to be 74.2 mL/min/kg; the intrinsic clearance, rat liver microsomes worked out at 279 mL/min/kg; the aqueous solubility came out at 53 µg/mL (≈ 162 µM).

As to `CN(Cc1ccccn1)c1nc2ccccc2o1`, the MDR1-MDCK efflux ratio was 0.718; the intrinsic clearance, human liver microsomes was found to be 15 mL/min/kg; the intrinsic clearance, rat liver microsomes stood at 361 mL/min/kg; the aqueous solubility is 37.8 µg/mL (≈ 158 µM).

On to `CC1(c2nnc(-c3cc(-c4ccccc4)n[nH]3)o2)CCOCC1`, for which the MDR1-MDCK efflux ratio worked out at 1.21; the intrinsic clearance, human liver microsomes came to 13.5 mL/min/kg; the intrinsic clearance, rat liver microsomes came out at 179 mL/min/kg; the aqueous solubility was 18.4 µg/mL (≈ 59.1 µM).

Regarding `Cn1nc(-c2cn(Cc3ccc(CO)cc3)nn2)c2c(Cl)cccc21`, the MDR1-MDCK efflux ratio was found to be 5.12; the intrinsic clearance, human liver microsomes turned out to be 10 mL/min/kg; the intrinsic clearance, rat liver microsomes is 190 mL/min/kg; the aqueous solubility was found to be 19.2 µg/mL (≈ 54.3 µM).

On to `C[C@H]1CC[C@H](n2c3cnccc3c3cnc(Nc4ccc5c(n4)CCN(C(=O)CO)C5)nc32)CC1`, for which the MDR1-MDCK efflux ratio is 4.93; the intrinsic clearance, human liver microsomes was 133 mL/min/kg; the intrinsic clearance, rat liver microsomes came to 349 mL/min/kg.

Turning to `O=C(CC1c2ccccc2CCc2ccccc21)NCCN1CCOCC1`, the MDR1-MDCK efflux ratio came out at 10.6; the intrinsic clearance, human liver microsomes was 131 mL/min/kg; the intrinsic clearance, rat liver microsomes came out at 2020 mL/min/kg.

On to `CC(C)COc1cc(F)cc(-c2cncc(C(=O)N3CCCC3)n2)c1`, for which the MDR1-MDCK efflux ratio is 0.442 and the aqueous solubility worked out at 0.7 µg/mL (≈ 2.04 µM).

As for `Cc1nc(-c2ccccc2)c(C(=O)Nc2ccc(Cl)cc2)s1`, the MDR1-MDCK efflux ratio was determined as 0.438 and the aqueous solubility is 0.35 µg/mL (≈ 1.06 µM).
